Reference: article PMC3366211, “Leishmanicidal Activity of Nine Novel Flavonoids from Delphinium staphisagria” (The Scientific World Journal, 2012)
Like-named read-outs stand apart in the source and are kept apart here.

Key:
L. infantum = test: Infection assay in J774.2 macrophages; type: cell-based, Leishmania infantum; details: IC25 concentration; for infection rate decrease, percentage of inhibition capacity: with respect to control
Experimental: (§1) J774.2 macrophage cells were grown under the same conditions expressed in amastigote forms assay during two days. Afterwards, the cells were infected in vitro with promastigote forms of L. infantum and L. braziliensis, at a ratio of 10 : 1. The drugs (IC25 concentrations) were added immediately after infection and were incubated for 12 hours at 37°C in 5% CO2. The nonphagocytosed parasites and the drugs were removed by washing, and then the infected cultures were grown for 10 days in fresh medium. Fresh culture medium was added every 48 h. The drug activity was determined from the percentage of infected cells and the number of amastigotes per infected cell (in treated and untreated cultures) in methanol-fixed and Giemsa-stained preparations. The percentage of infected cells and the mean number of amastigotes per infected cell were determined by analyzing 200 host cells distributed in randomly chosen microscopic fields. Values are the average of three separate determinations.

[1] = test system: L. infantum intracellular amastigote forms; test: Intracellular amastigote forms assay in J774.2 macrophages; type: cell-based, Leishmania infantum; details: for IC50: L. infantum in J774.2 macrophages, 72 h; for SI Intracellular amastigote forms / number of times that compound SI exceeds the reference drug SI, Intracellular amastigote forms: L. infantum; for SI Intracellular amastigote forms: IC50 macrophages/IC50 parasite form; for number of times that compound SI exceeds the reference drug SI, Intracellular amastigote forms: in brackets, reference Glucantime
Experimental: (§2) Cells were seeded at a density of 1 × 10^4 cells/well in 24-well microplates (Nunc) with rounded coverslips on the bottom and cultured for 2 days. Afterwards the cells were infected in vitro with promastigote forms of L. infantum and L. braziliensis, at a ratio of 10 : 1 during 24 hours. The non-phagocytosed parasites were removed by washing, and then the drugs (at 1, 10, 25, 50, 100 μM) were added. Macrophages with the drugs were incubated for 72 hours at 37°C in 5% CO2.
(§3) Drug activity was determined on the basis of number of amastigotes in treated and untreated cultures in methanol-fixed and Giemsa-stained preparations. The number of amastigotes was determined by analyzing 200 host cells distributed in randomly chosen microscopic fields. The antileishmanial effect is expressed as the IC50 values are the means of three separate determinations.

[2] = test system: L. braziliensis intracellular amastigote forms; test: as above; type: cell-based, Leishmania braziliensis; details: for IC50: L. braziliensis in J774.2 macrophages, 72 h; for SI Intracellular amastigote forms / number of times that compound SI exceeds the reference drug SI, Intracellular amastigote forms: L. braziliensis; for SI Intracellular amastigote forms: IC50 macrophages/IC50 parasite form; for number of times that compound SI exceeds the reference drug SI, Intracellular amastigote forms: in brackets, reference Glucantime
Experimental: as §2, §3

L. braziliensis = test: Infection assay in J774.2 macrophages; type: cell-based, Leishmania braziliensis; details: IC25 concentration; for infection rate decrease, percentage of inhibition capacity: with respect to control
Experimental: as §1

[3] = test system: L. infantum promastigote forms; test: Promastigote forms assay; type: cell-based, Leishmania infantum; details: for IC50: 72 h; for SI Promastigote forms: IC50 macrophages/IC50 parasite form; for times SI exceeds the reference drug SI (all forms): extracellular and intracellular forms; for times SI exceeds the reference drug SI (all forms) / number of times that compound SI exceeds the reference drug SI, Promastigote forms: reference Glucantime; for number of times that compound SI exceeds the reference drug SI, Promastigote forms: in brackets
Experimental: (§4) The compounds obtained were dissolved in the culture medium, at dosages of 100, 50, 25, 10, and 1 μM. The effects of each compound against promastigote forms were tested at 72 hours using a Neubauer haemocytometric chamber. The antileishmanial effect is expressed as the IC50, that is, the concentration required to give 50% inhibition, calculated by linear regression analysis from the Kc values of the concentrations employed.

[4] = test system: L. braziliensis axenic amastigote forms; test: Axenic amastigote forms assay; type: cell-based, Leishmania braziliensis; details: for IC50: 48 hours per method (72 h); for SI Axenic amastigote forms: IC50 macrophages/IC50 parasite form; for number of times that compound SI exceeds the reference drug SI, Axenic amastigote forms: in brackets, reference Glucantime
Experimental: (§5) Axenic amastigotes forms of L. infantum and L. braziliensis were cultured following the methodology described previously by Moreno et al.. Thus, promastigote transformation to amastigotes was obtained after three days of culture in M199 medium (Invitrogen, Leiden, The Netherlands) supplemented with 10% heat-inactivated FCS, 1 g/L β-alanine, 100 mg/L L-asparagine, 200 mg/L sacarose, 50 mg/L sodium pyruvate, 320 mg/L malic acid, 40 mg/L fumaric acid, 70 mg/L succinic acid, 200 mg/L α-ketoglutaric acid, 300 mg/L citric acid, 1.1 g/L sodium bicarbonate, 5 g/L MES, 0.4 mg/L hemin, and 10 mg/L gentamicin pH 5.4 at 37°C. The effect of each compound against axenic amastigotes forms was tested at 48 hours using a Neubauer haemocytometric chamber. The antileishmanial effect is expressed as the IC50.

[5] = test system: L. infantum axenic amastigote forms; test: Axenic amastigote forms assay; type: cell-based, Leishmania infantum; details: for IC50: 48 hours per method (72 h); for SI Axenic amastigote forms: IC50 macrophages/IC50 parasite form; for number of times that compound SI exceeds the reference drug SI, Axenic amastigote forms: in brackets, reference Glucantime
Experimental: as §5

[6] = test system: L. braziliensis promastigote forms; test: Promastigote forms assay; type: cell-based, Leishmania braziliensis; details: for IC50: 72 h; for SI Promastigote forms: IC50 macrophages/IC50 parasite form; for number of times that compound SI exceeds the reference drug SI, Promastigote forms: in brackets, reference Glucantime
Experimental: as §4

J774.2 macrophages = test: Cytotoxicity test for macrophages (flow cytometry); type: cell-based, BALB/c rat; details: J774.2 macrophages after 72 h of culture, read-out: Macrophage toxicity IC50
Experimental: J774.2 macrophages (ECACC number 91051511) were originally obtained from a tumour in a female BALB/c […] in 1968. The cytotoxicity test for macrophages was performed according to the methodology of González et al.. After 72 hours of treatment, cell viability was determined by flow cytometry. Thus, 100 μL/well of propidium iodide solution ([…]) was added and incubated for 10 min at 28°C in darkness. Afterwards, 100 μL/well of fluorescein diacetate (100 ng/mL) was added and incubated under the same conditions. Finally, the cells were recovered by centrifugation at 400 g for 10 min and the precipitate washed with phosphate buffered saline (PBS). Flow cytometric analysis was performed with a FACSVantage flow cytometer (Becton Dickinson). The percentage viability was calculated in comparison with the control culture. The IC50 was calculated using linear regression analysis from the Kc values of the concentrations employed.

[7] = test system: L. infantum promastigotes; test: Ultrastructural alterations (TEM); type: cell-based, Leishmania infantum; details: IC25, 96 hours
Experimental: (§6) The parasites were cultured at a density of 5 × 10^5 cells/mL in MTL medium, and the cultures contained drugs at the IC25 concentration.
(§7) After 96 hours, those cultures were centrifuged at 400 g for 10 min, and the pellets produced were washed in PBS and then mixed with 2% (v/v) P-formaldehyde-glutaraldehyde in 0.05 M cacodylate buffer (pH 7.4) for 4 hours at 4°C. After that, the pellets were prepared for TEM employing the technique of González et al..

[8] = test system: L. braziliensis promastigotes; test: Ultrastructural alterations (TEM); type: cell-based, Leishmania braziliensis; details: IC25, 96 hours
Experimental: as §6, §7

[9] = test system: L. infantum promastigotes; test: Metabolite excretion (1H-NMR); type: cell-based, Leishmania infantum; details: IC25, 96 hours, vs control
Experimental: Cultures of L. infantum and L. braziliensis promastigotes (initial concentration 5 × 10^5 cells/mL) received IC25 concentrations of the compounds (except for control cultures). After incubation for 96 hours at 28°C, the cells were centrifuged at 400 g for 10 min. Then supernatants were collected to determine the excreted metabolites using ^1H-NMR, and, eventually, chemical displacements were expressed in parts per million (ppm), using sodium 2,2-dimethyl-2-silapentane-5-sulphonate as the reference signal. The chemical displacements used to identify the respective metabolites were consistent with those described by Fernández-Becerra et al.

Compound	decrease of average number of amastigotes per infected macrophage cell (L. infantum) [%]	infection rate decrease, percentage of inhibition capacity (L. infantum) [%]	IC50 [1] [µM]	SI Intracellular amastigote forms [1]	IC50 [2] [µM]	decrease of average number of amastigotes per infected macrophage cell (L. braziliensis) [%]	infection rate decrease, percentage of inhibition capacity (L. braziliensis) [%]	IC50 [3] [µM]	SI Promastigote forms [3]	IC50 [4] [µM]	SI Axenic amastigote forms [4]	SI Axenic amastigote forms [5]	SI Promastigote forms [6]	number of times that compound SI exceeds the reference drug SI, Intracellular amastigote forms [1]	SI Intracellular amastigote forms [2]	number of times that compound SI exceeds the reference drug SI, Intracellular amastigote forms [2]	times SI exceeds the reference drug SI (all forms) [3]	number of times that compound SI exceeds the reference drug SI, Promastigote forms [3]	number of times that compound SI exceeds the reference drug SI, Axenic amastigote forms [5]	number of times that compound SI exceeds the reference drug SI, Promastigote forms [6]	also measured
meglumine antimoniate [Glucantime, reference compound]	12	63	30 ± 2.7	0.5	31.1 ± 3	33	58	18 ± 3.1	0.8	30.4 ± 6.1	0.5	0.6	0.6	–	–	–	–	–	–	–	IC50 [5]: 24.2 ± 2.6 µM; IC50 [6]: 25.6 ± 1.6 µM; IC50 (J774.2 macrophages): 15.2 ± 1.3 µM
CC(=O)O[C@H]1[C@H](Oc2c(-c3ccc(O)cc3)oc3cc(O[C@@H]4O[C@H](CO)[C@@H](O)[C@H](O)[C@H]4O)cc(O)c3c2=O)O[C@H](CO)[C@@H](O)[C@@H]1O [Compound 5, 2′′-acetylpaeonoside]	45	79	–	26.9	–	72	79	–	40.7	–	–	33.6	29.3	54	20.0	40	more than 50 times	51	56	49	IC50 ([1]; Leishmania infantum): 37.2 ± 3.5 µM; IC50 ([2]; Leishmania braziliensis): 50.9 ± 6.2 µM; ultrastructural alterations by TEM [7]: produced similar effects; ultrastructural alterations by TEM [8]: no significant changes compared to the control; IC50 ([3]; Leishmania infantum): 24.6 ± 3.7 µM; IC50 ([4]; Leishmania braziliensis): 19.4 ± 0.9 µM; IC50 ([5]; Leishmania infantum): 29.8 ± 2.2 µM; IC50 ([6]; Leishmania braziliensis): 34.1 ± 6.6 µM; change in excreted catabolites [9]: an increase in the excretion of succinate, and acetate, followed by malate, alanine, lactate and ethanol
CC(=O)OC[C@H]1O[C@@H](Oc2c(-c3ccc(OC(C)=O)c(OC(C)=O)c3)oc3cc(O[C@@H]4O[C@@H](C)[C@H](OC(C)=O)[C@@H](OC(C)=O)[C@H]4OC(C)=O)cc(OC(C)=O)c3c2=O)[C@H](OC(C)=O)[C@@H](OC(C)=O)[C@@H]1OC(C)=O [Compound 9, petiolaroside decacetate]	–	–	–	15.8	–	–	–	–	21.5	–	19.9	22.8	15.2	32	23.3	47	< 50 times	27	38	25	IC50 ([1]; Leishmania infantum): 31 ± 1.7 µM; IC50 ([2]; Leishmania braziliensis): 21 ± 1.3 µM; IC50 ([3]; Leishmania infantum): 22.8 ± 1.7 µM; IC50 ([4]; Leishmania braziliensis): 24.6 ± 1.3 µM; number of times that compound SI exceeds the reference drug SI, Axenic amastigote forms [4]: 40; IC50 ([5]; Leishmania infantum): 21.5 ± 0.9 µM; IC50 ([6]; Leishmania braziliensis): 32.3 ± 3.3 µM; IC50 (J774.2 macrophages; Mus musculus, J774.2, 72 h): 490 ± 22.4 µM
paeonoside [Compound 4]	37	77	31.4 ± 2	31.8	32.7 ± 2.1	61	68	25.1 ± 1.9	39.8	23.7 ± 2.1	42.2	37.2	35.6	64	30.6	61	more than 50 times	50	62	59	ultrastructural alterations by TEM [7]: many of the parasites appeared dead, while another showed pronounced vacuolization; ultrastructural alterations by TEM [8]: expansion of the kinetoplast, which appeared swollen; number of times that compound SI exceeds the reference drug SI, Axenic amastigote forms [4]: 84; IC50 [5]: 26.9 ± 1.4 µM; IC50 [6]: 28.1 ± 5.2 µM; IC50 (J774.2 macrophages): > 1000 µM; change in excreted catabolites [9]: an increase in the excretion of succinate, and acetate, followed by malate, alanine, lactate and ethanol
